One compound from patent US20240108634A1, “COMPOSITIONS AND METHODS FOR INHIBITING YAP” (The United States Government as represented by the …, priority 2021, published 2024) can be followed below.

Data set [1] has as its system normal human neurons. The experiment in a line: TUNEL staining of normal human neurons. The data set is classed as cell-based. The note with it: 48 h exposures. The text has this: Data shown are mean+S.D., n=3.
Materials and Methods. Cell culture, vectors and reagents. Normal mature human neurons were obtained from ScienCell (Carlsbad, CA). Lines were routinely tested to confirm the absence of mycoplasma and authenticated by short tandem repeat profiling (ATCC). The myc-tagged TEAD (pRK5-Myc-TEAD1) and HA-tagged YAP1 (pCl-HA-YAP) vectors were used for mammalian expression and TEAD was subcloned into pGEX-2TK, while YAP was subcloned into pET-14b for bacterial expression and purification. DNA transfections were performed using Effectene transfection reagent according to the manufacturer (QIAGEN) and lentiviral transductions were performed as previously described (Rosenbluh J, et al. (2012) Cell 151: 1457-1473). Large-scale syntheses of NSC682769 was performed by New England Discovery Partners, Branford, CT. The other reagents including kits for ALT, AST and creatinine level determinations were from Sigma-Aldrich.

For data set [2], the target named is T1, full-length YAP (Homo sapiens, UniProt P46937).
T1 construct: made in house; host or cells: bacterial (inferred)
The experiment in a line: Surface plasmon resonance of NSC682769 analyte on immobilized full-length YAP. Conditions: SPR, 25° C., read-out: Kd from steady-state binding. Here is the method: FIGS. 1A-G show the identification of a YAP1-TEAD1 binding interface inhibitor. […] The Gal4 DBD was fused to residues 50-171 of human YAP1 and the Gal4 AD was fused to residues 194-411 of human TEAD1. These fusions were expressed in yeast containing reporters harboring Gal4 upstream activating sequences (UAS). […] Yeast expressing either p53-DBD and SV40 large T antigen-AD fusions or YAP1-DBD and TEAD1-AD fusions were plated on selective media. Compounds were pinned onto the plate surfaces by robotic transfer and subsequently examined for halo formation (indicated by red circles). Compounds inhibiting YAP1-TEAD1 mediated growth on selective media while having no effect on p53-T antigen mediated yeast growth were considered specific. […] Pull-down products were analyzed by SDS-PAGE and silver staining. […] Raw binding sensorgrams obtained at each concentration were fitted to a 1:1 binding model and Kon, Koff and KD were calculated by simultaneous non-linear regression analyses.
Surface plasmon resonance (SPR), ELISA, YAP-TEAD reporter activity, cellular fractionation, and immunofluorescence analyses. […] YAP-TEAD reporter activity was determined as previously described (Kim N G, Gumbiner B M (2015) J Cell Biol 210: 503-515). […] Luciferase activity was measured via a luciferase assay system (Promega). […] Cell lysis was monitored by trypan blue staining. […]
(In SPR one partner is held on a chip, and binding of the other changes the refractive index at the surface.)

For orientation: Kd means the concentration at which binding is half-saturated.

T1 sequence (P46937 whole entry): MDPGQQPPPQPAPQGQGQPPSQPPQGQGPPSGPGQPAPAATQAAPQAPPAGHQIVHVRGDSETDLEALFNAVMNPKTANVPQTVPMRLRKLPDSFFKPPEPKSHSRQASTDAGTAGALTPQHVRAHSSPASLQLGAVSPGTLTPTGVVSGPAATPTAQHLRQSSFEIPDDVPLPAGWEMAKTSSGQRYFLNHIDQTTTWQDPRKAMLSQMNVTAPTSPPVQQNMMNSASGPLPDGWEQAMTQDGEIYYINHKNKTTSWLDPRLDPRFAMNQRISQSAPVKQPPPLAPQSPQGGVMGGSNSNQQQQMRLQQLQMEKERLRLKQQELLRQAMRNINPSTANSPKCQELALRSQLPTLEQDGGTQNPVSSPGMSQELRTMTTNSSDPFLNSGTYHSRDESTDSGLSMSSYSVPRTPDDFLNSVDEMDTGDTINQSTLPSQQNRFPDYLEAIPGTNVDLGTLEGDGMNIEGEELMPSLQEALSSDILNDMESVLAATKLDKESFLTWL

As to `COc1ccc(-c2cc(-c3ccccc3)nc3c2CC(=O)Nc2ccccc2-3)cc1OC` [NSC682769], the “Toxicity to normal human neurons” value in data set [1] is “minimal toxicity”. Besides, the Kd in data set [2] was 0.738 µM.
